Assay results published in US9546200B2, “Peptide for protection of allergic respiratory disorders” (Board of Supervisors of Louisiana State University and …, priority 2011, dated 2017).
Residues, ends and D or L forms follow the SMILES beside them.

Tested on: foals
Parameters: species or system horse
Details: in vivo
Method: Two days before the injection of the peptide-1, a foal along with the mare was brought from the pasture to a bedded stall of the LSU School of Veterinary Medicine. They were fed hay and concentrated horse chow (Horse Chow #200^R, Purina Mills, St. Louis, Mo.); water was provided ad libitum. A physical examination was conducted on the day of injection. The foal's body temperature, heart rate, respiratory rate, body weight, body score, sex, breed, age and general physical conditions were recorded. After the physical examination, 5 ml of blood was drawn from jugular vein to determine pre-immune antibody titer (control value) and CBC.
Since the peptide-1 has not been tried in any animals, the first foal was used to test the injection method and dosage. A low dose of 0.1 mg/kg body weight of conjugated peptide-1 with KLH was used, but without an adjuvant to minimize any adverse reactions due to either a high dose of peptide-1 or adjuvant. This protocol allowed a determination of any reaction due to the conjugated peptide-1 alone. A subcutaneous route of administration was chosen to produce a consistent “slow and steady” absorption. The first injection was given on the left side of the neck after cleaning with alcohol. […] After the injection, 5 ml blood was collected weekly. A booster injection with the same dose and route was given on the right side of the neck on the 15th day following the initial injection. Weekly blood collections continued for 42 days. […] For the remaining foals, a new protocol was used in that an adjuvant was added to the injection and the booster injection was given on the 28th day after the initial injection.
Immediately after injection (either the first injection or the booster), a small swelling (size 1″×0.5″) at the site of injection was observed. The foal was observed continuously for the first hour and later every hour for eight hours. The foal evinced pain upon touch at the injection site, but it was eating, nursing, and drinking within 15 minutes after injection. […] No sweating, fever, cough, seizure or difficulty in breathing was observed.
The foal remained under close observation for another two days, when the swelling began to subside. On the third day, foal and mare were allowed to go to the pasture. A similar swelling occurred at the booster injection time also. Therefore, in the animal protocol, foals would be kept in the bedded stall with the mare for a week after injection to observe the foals closely. In addition, the protocol demanded that if the swollen area is more than 2.5″ in diameter and more than 0.5″ in thickness, hot water packs are to be applied to relieve pain and swelling. Veterinary medical care is to be consulted if the condition worsens. After one week in the stall, the Foal #2 was let out to pasture and continued to do well for the remainder of the experimental period of 57 days.
The basic protocol is as described for Foal #2. However, before injecting the peptide, extra care was taken in cleaning the injection site by scrubbing the site with Septisol antiseptic foam (Septisol^R, Steris Corp., Ohio) and alcohol. […] There was a small swelling in this foal which lasted only for 24 hours, probably due to the adjuvant. The adjuvant has an oily consistency, which would facilitate slow absorption of the injected solution.

With `CC[C@H](C)[C@H](NC(=O)[C@H](CCCCN)NC(=O)[C@H](CC(=O)O)NC(=O)[C@H](CCSC)NC(=O)[C@H](CC(C)C)NC(=O)[C@H](CCCCN)NC(=O)[C@H](CC(C)C)NC(=O)[C@@H](NC(=O)[C@H](CO)NC(=O)[C@H](CC(=O)O)NC(=O)[C@H](CCCCN)NC(=O)[C@@H](NC(=O)[C@H](CC(N)=O)NC(=O)[C@@H](N)CCCCN)[C@@H](C)O)[C@@H](C)CC)C(=O)N[C@@H](C)C(=O)N[C@@H](CCCCN)C(=O)N[C@@H](CO)C(=O)N1CCC[C@H]1C(=O)N[C@@H](CC(C)C)C(=O)N[C@@H](CS)C(=O)N[C@@H](C)C(=O)O` [Peptide-1] (H-KNTKDSILKLMDKIAKSPLCA-OH) the “area of swelling at the injection site” value was 2.5″×2″, the “size of swelling at the site of injection” value was 1″×0.5″ and the “thickness of swelling at the injection site” value was 0.5 ″. For the same compound, the duration of swelling (sc, 0.1 mg/kg) was 24 h and the other adverse reaction (sc, 0.1 mg/kg) was “no other adverse reaction”.
